Measured values: ChEMBL document CHEMBL4765326, “Anchoring BODIPY photosensitizers enable pan-microbial photoinactivation” (Eur J Med Chem, 2020)
The source made the active and inactive calls. No cut-off for these calls is given here.

Columns and labels:
Candida albicans [1] = assay: Antifungal activity against Candida albicans up to 80 uM by broth microdilution method; type: functional, organism-based; conditions: dose microM <=80
Staphylococcus aureus [2] = assay: Antibacterial activity against methicillin resistant Staphylococcus aureus up to 80 uM by broth microdilution method; type: functional, organism-based; conditions: dose microM <=80
Escherichia coli [3] = assay: Antibacterial activity against Escherichia coli up to 80 uM by broth microdilution method; type: functional, organism-based; conditions: dose microM <=80
Staphylococcus aureus [4] = assay: Photodynamic antibacterial activity against Staphylococcus aureus assessed as bacterial eradication preincubated for 20 mins in dark condition followed by 18 J/cm2 LED light irradiation and measured after 18 hrs by broth microdilution method; type: functional; conditions: light or radiation study, 18.33 h, time 1100 min
Escherichia coli [5] = assay: Photodynamic antibacterial activity against Escherichia coli assessed as bacterial eradication preincubated for 20 mins in dark condition followed by 18 J/cm2 LED light irradiation and measured after 18 hrs by broth microdilution method; type: functional; conditions: light or radiation study, 18.33 h, time 1100 min
Staphylococcus aureus [6] = assay: Photodynamic antibacterial activity against methicillin resistant Staphylococcus aureus assessed as bacterial eradication preincubated for 20 mins in dark condition followed by 18 J/cm2 LED light irradiation and measured after 18 hrs by broth microdilution method; type: functional; conditions: light or radiation study, 18.33 h, time 1100 min
Candida albicans [7] = assay: Photodynamic antifungal activity against Candida albicans assessed as fungal eradication preincubated for 20 mins in dark condition followed by 18 J/cm2 LED light irradiation and measured after 18 hrs by broth microdilution method; type: functional; conditions: light or radiation study, 18.33 h, time 1100 min
[8] = Induction of singlet oxygen generation in DPBF solution assessed as singlet oxygen quantum yield irradiated with 80 mW/cm2 light by DPBF-based assay; type: functional
Staphylococcus aureus [9] = assay: Antibacterial activity against Staphylococcus aureus up to 80 uM by broth microdilution method; type: functional, organism-based; conditions: dose microM <=80
[10] = Octanol-water partition coefficient, logP of compound incubated for 24 hrs under shaking condition; type: physicochemical

SMILES | Activity (Candida albicans [1]) | Activity (Staphylococcus aureus [2]) | Activity (Escherichia coli [3]) | MIC (Staphylococcus aureus [4]) | MIC (Escherichia coli [5]) | MIC (Staphylococcus aureus [6]) | MIC (Candida albicans [7]) | Activity [8] | Activity (Staphylococcus aureus [9]) | logP at 24 h [10]
CC1=C(I)C(C)=[N+]2C1=Cc1c(C)c(I)c(C)n1[B-]2(C#Cc1cc[n+](C)cc1)C#Cc1cc[n+](C)cc1 | inactive | inactive | inactive | 1.25 µM | 1.25 µM | 0.625 µM | 0.625 µM | 0.54 | inactive | -0.63
CC1=C(I)C(C)=[N+]2C1=Cc1c(C)c(I)c(C)n1[B-]2(OCCCCc1cc[n+](C)cc1)OCCCCc1cc[n+](C)cc1 | inactive | inactive | inactive | 1.25 µM | 0.625 µM | 1.25 µM | 5 µM | 0.77 | inactive | -0.74
CC[N+](C)(CC)CCO[B-]1(OCC[N+](C)(CC)CC)n2c(C)c(I)c(C)c2C=C2C(C)=C(I)C(C)=[N+]21 | inactive | inactive | inactive | 30 µM | 40 µM | 40 µM | 40 µM | 0.65 | inactive | -1.36
CC1=C(I)C(C)=[N+]2C1=Cc1c(C)c(I)c(C)n1[B-]2(OCCCc1cc[n+](C)cc1)OCCCc1cc[n+](C)cc1 | inactive | inactive | inactive | 1.25 µM | 1.25 µM | 1.25 µM | 5 µM | 0.74 | inactive | -0.91
